Test results as given in US6518270B1, “Heterocyclic compounds for inhibition of gastric acid secretion, processes for their preparation and pharmaceutical compositions thereof” (AstraZeneca AB, priority 1997, dated 2003).
pIC50: −log10 of the molar value.

Target: T1, H+,K+-ATPase
T1 construct: from tissue
Experiment: Determination of H+,K+-ATPase activity
Assay type: biochemical
Details: membrane vesicles, 15 min at +37° C., pH 7.4, 10 mM KCl, 2 mM ATP; release of inorganic phosphate
Method: Determination of H^+,K^+-ATPase Activity
Membrane vesicles (2.5 to 5 μg) were incubated for 15 min at +37° C. in 18 mM Pipes/Tris buffer pH 7.4 containing 2 mM MgCl2, 10 mM KCl and 2 mM ATP. The ATPase activity was estimated as release of inorganic phosphate from ATP, as described by LeBel et al. (1978) Anal. Biochem. 85, 86-89.

T1 sequence (P20648 whole entry): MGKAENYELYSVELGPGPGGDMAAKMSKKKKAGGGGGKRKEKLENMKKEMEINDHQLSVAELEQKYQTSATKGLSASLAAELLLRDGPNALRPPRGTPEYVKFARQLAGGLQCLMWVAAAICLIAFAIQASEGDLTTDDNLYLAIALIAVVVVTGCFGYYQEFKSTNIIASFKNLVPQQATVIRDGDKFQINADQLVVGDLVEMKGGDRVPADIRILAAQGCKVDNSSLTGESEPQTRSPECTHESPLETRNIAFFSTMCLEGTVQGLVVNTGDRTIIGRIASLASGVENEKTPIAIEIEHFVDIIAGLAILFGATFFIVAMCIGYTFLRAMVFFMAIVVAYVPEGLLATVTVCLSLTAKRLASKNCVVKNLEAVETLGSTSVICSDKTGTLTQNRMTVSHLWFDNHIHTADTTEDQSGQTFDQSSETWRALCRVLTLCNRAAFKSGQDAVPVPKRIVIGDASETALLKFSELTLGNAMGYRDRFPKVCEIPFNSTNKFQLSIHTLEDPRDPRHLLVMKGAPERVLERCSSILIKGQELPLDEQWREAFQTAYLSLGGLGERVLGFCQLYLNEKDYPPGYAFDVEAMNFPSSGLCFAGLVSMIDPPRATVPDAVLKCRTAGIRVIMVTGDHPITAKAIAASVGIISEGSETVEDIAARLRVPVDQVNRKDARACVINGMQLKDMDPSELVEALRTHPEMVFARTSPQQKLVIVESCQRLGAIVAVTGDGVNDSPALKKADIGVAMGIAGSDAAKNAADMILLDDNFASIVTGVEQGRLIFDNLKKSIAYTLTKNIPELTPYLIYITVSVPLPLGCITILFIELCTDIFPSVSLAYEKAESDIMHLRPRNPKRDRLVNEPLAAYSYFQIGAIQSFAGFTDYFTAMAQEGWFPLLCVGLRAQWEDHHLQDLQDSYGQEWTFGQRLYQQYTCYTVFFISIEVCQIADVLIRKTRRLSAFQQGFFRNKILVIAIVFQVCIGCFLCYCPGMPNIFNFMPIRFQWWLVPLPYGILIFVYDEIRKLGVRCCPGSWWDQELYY
T1 sequence (P51164 whole entry partner): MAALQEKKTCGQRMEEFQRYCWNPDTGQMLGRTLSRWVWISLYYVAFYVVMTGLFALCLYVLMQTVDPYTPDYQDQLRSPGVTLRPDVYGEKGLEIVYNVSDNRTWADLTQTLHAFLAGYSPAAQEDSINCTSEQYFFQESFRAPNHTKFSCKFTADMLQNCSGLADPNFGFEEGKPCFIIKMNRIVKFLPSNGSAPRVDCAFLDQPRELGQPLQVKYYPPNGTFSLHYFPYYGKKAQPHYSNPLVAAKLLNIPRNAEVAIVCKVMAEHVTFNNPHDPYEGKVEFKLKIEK

pIC50	SMILES
5.56	Cc1cccc(C)c1COc1nccn2c(C)c(C)nc12 [Example 2, 2,3-dimethyl-8-(2,6-dimethylbenzyloxy)imidazo[1,2-a]pyrazine]
6.80	Cc1cccc(C)c1CNc1nccn2c(C)c(C)nc12 [Example 1, 2,3-dimethyl-8-(2,6-dimethylbenzylamino)imidazo [1,2-a]pyrazine]
